# Results published in patent US12152038B2, “Vasopressin receptor antagonists and products and methods related thereto” (Neumora Therapeutics, Inc., priority 2017, dated 2024).
# Biological target: T1, human Arginine Vasopressin Receptor 1b (AVPR1b) (Homo sapiens, UniProt P47901)
# T1 construct: expressed in transfected cells; host or cells: CHO (CHO-AVPR1b, kept under G418 selection)
# T1 sequence (P47901 1-424): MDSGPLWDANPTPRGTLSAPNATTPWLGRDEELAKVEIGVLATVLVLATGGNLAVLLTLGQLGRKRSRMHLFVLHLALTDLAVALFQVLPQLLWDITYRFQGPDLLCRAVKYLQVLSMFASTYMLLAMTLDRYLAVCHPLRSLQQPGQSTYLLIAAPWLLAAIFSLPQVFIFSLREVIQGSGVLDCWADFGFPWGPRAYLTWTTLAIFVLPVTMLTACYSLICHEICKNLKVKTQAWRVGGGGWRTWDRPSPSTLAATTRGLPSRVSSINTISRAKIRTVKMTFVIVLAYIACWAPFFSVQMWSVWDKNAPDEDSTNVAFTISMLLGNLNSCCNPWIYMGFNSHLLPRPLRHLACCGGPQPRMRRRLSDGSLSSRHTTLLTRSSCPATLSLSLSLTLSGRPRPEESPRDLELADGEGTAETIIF
# Assay: Vasopressin V1b receptor antagonist assay (FLIPR calcium, CHO-AVPR1b cells)
# Type: cell-based
# Description: The purpose of the assay was to determine the inhibitory effect of synthesized compounds on the Vasopressin V1b receptor. The assay was performed in Chinese Hamster Ovary (CHO) cells expressing the human Arginine Vasopressin Receptor 1b (AVPR1b). Arginine Vasopressin (AVP) evokes an increase in intracellular calcium in CHO-AVPR1b cells which is measured in a fluorescence assay on the FLIPR^TETRA using calcium sensitive dyes. Test compounds were assessed for their ability to affect the magnitude of the response to AVP, with antagonists showing a concentration-dependent reduction in the AVP-mediated fluorescence.
# CHO-AVPR1b cells were maintained in routine culture in T175 Flasks at 37° C., 5% CO2. The growth medium consisted of Ham's F12 media supplemented with 10% v/v fetal bovine serum, 1× non-essential amino acids, and 0.4 mg/ml Geneticin G418.
# Cells were harvested from T175 flasks when they were 80-90% confluent by first washing the cell monolayer with PBS and then dissociated using trypsin 0.05%/EDTA (3 mL for a T175 Flask). The flasks were incubated at room temperature until the cells detached. To the cell suspension, 10 ml of growth media was added and the cell density determined using the Vi-Cell automated cell counter. The cells were spun at 1000 rpm for 3 minutes, then the supernatant was carefully removed and discarded. The cell pellet was re-suspended at 6.0e^5 cells/ml in growth media. 25 μL of cells in growth media was dispensed into each well (15,000 cells per well) of a poly-D-lysine coated black, clear bottomed, 384-well plate. The plates were incubated at 37° C., 5% CO2 overnight.
# At the start of each assay day, the potency of AVP was assessed and an EC80 concentration determined for subsequent compound profiling. Assays were performed using a two-step addition protocol on the FLIPR^TETRA; first addition of 5 μl of control or test compound at 10× final in assay buffer with 15 min incubation at 37° C., 5% CO2 followed by 10 μl of AVP at 6× final concentration in assay buffer. Changes in fluorescence were monitored for 3 min after both additions on the FLIPR^TETRA using 470-495 nm excitation and 515-575 nm emission wavelengths. The assay buffer consisted of HBSS (+Ca/+Mg) supplemented with 20 mM HEPES, and for the preparation of the AVP agonist only, 0.1% w/v bovine serum albumin. The assay was initiated by the removal of growth media from the cells and replacement with 45 μl of Calcium-6 dye (Molecular Devices) prepared at 1× in assay buffer. Cells were loaded with dye for 60-90 min at 37° C., 5% CO2 before initiation of the FLIPR^TETRA protocol. […] For compound profiling, test compounds were first serially diluted in DMSO (10-point curve, 1:3 dilutions) then diluted 33.3-fold in assay buffer prior to addition to the dye loaded cells on the FLIPR^TETRA. At the end of the incubation period 10 μl of AVP in assay buffer containing 0.1% BSA was added at the previously determined EC80 concentration.
# In-plate controls for the assay included a Nelivaptan concentration-response curve as the reference V1b antagonist and an AVP concentration-response curve to confirm the reproducibility of the EC80 used for the compound challenge.
row,IC50 [nM],Structure (SMILES)
1,≥ 1000,"CC1COc2cc(Cl)ccc2N1C(=O)N1CC2(C1)CN(c1cccnn1)C2 (centres unmarked) [9-1, (7-chloro-3-methyl-2,3-dihydro-4H-benzo[b][1,4]oxazin-4-yl)(6-(pyridazin-3-yl)-2,6-diazaspiro[3.3]heptan-2-yl)methanone]"
2,≥ 1000,COc1ccc2c(c1)OCCN2C(=O)N1CC2(C1)CN(c1ccc(F)cn1)C2 [9-2]
3,≥ 1000,CC1CN(C(=O)N2CC3(C2)CN(c2ccc(F)cn2)C3)c2ccc(Cl)cc2O1 (centres unmarked) [9-3]
4,≥ 1000,O=C(N1CC2(C1)CN(c1ccc(F)cn1)C2)N1CCOc2cc(F)c(F)cc21 [9-6]
5,≥ 1000,O=C(N1CC2(C1)CN(c1ccc(F)cn1)C2)N1CCOc2cc(Cl)ccc21 [9-7]
6,≥ 1000,"CCC1COc2cc(Cl)ccc2N1C(=O)N1CC2(C1)CN(c1ccccn1)C2 (centres unmarked) [11-1, (7-chloro-3-ethyl-2,3-dihydro-4H-benzo[b][1,4]oxazin-4-yl)(6-(pyridin-2-yl)-2,6-diazaspiro[3.3]heptan-2-yl)methanone]"
7,≥ 1000,"CC1COc2cc(F)ccc2N1C(=O)N1CC2(C1)CN(c1ccc(F)cn1)C2 (centres unmarked) [12-1, (7-fluoro-3-methyl-2,3-dihydro-4H-benzo[b][1,4]oxazin-4-yl)(6-(5-fluoropyridin-2-yl)-2,6-diazaspiro[3.3]heptan-2-yl)methanone]"
8,≥ 1000,"O=C(N1CC2(C1)CN(c1ccc(F)cn1)C2)N1CCC(O)c2cc(Cl)ccc21 (centres unmarked) [13-1, (6-chloro-4-hydroxy-3,4-dihydroquinolin-1(2H)-yl)(6-(5-fluoropyridin-2-yl)-2,6-diazaspiro[3.3]heptan-2-yl)methanone]"
9,≥ 1000,O=C(N1CC2(C1)CN(c1cnccn1)C2)N1CCC(O)c2cc(Cl)ccc21 (centres unmarked) [13-3]
10,≥ 1000,"O=C(N1CC2(C1)CN(c1ccc(F)cn1)C2)N1CCC(F)c2cc(Cl)ccc21 (centres unmarked) [14-1, (6-chloro-4-fluoro-3,4-dihydroquinolin-1(2H)-yl)(6-(5-fluoropyridin-2-yl)-2,6-diazaspiro[3.3]heptan-2-yl)methanone]"
11,≥ 1000,"O=C(N1CC2(C1)CN(c1ccc(F)cn1)C2)N1CCC(F)(F)c2cc(Cl)ccc21 [17-1, (6-chloro-4,4-difluoro-3,4-dihydroquinolin-1(2H)-yl)(6-(5-fluoropyridin-2-yl)-2,6-diazaspiro[3.3]heptan-2-yl)methanone]"
12,≥ 1000,"CC1COc2cc(F)ccc2N1C(=O)N1CC2(C1)CN(c1ncccn1)C2 (centres unmarked) [18-1, (7-fluoro-3-methyl-2,3-dihydro-4H-benzo[b][1,4]oxazin-4-yl)(6-(pyrimidin-2-yl)-2,6-diazaspiro[3.3]heptan-2-yl)methanone]"
13,≥ 1000,CC1COc2cc(Cl)ccc2N1C(=O)N1CC2(C1)CN(c1noc3cccnc13)C2 (centres unmarked) [18-3]
14,≥ 1000,"CC1COc2cc(F)c(F)cc2N1C(=O)N1CC2(C1)CN(c1ncccn1)C2 (centres unmarked) [19-1, (6,7-difluoro-3-methyl-2,3-dihydro-4H-benzo[b][1,4]oxazin-4-yl)(6-(pyrimidin-2-yl)-2,6-diazaspiro[3.3]heptan-2-yl)methanone]"
15,≥ 1000,CC1COc2cc(Cl)c(F)cc2N1C(=O)N1CC2(C1)CN(c1ncccn1)C2 (centres unmarked) [19-2]
16,≥ 1000,CC1COc2cc(F)c(F)cc2N1C(=O)N1CC2(C1)CN(c1cccnn1)C2 (centres unmarked) [19-3]
17,≥ 1000,CC1COc2cc(Cl)c(F)cc2N1C(=O)N1CC2(C1)CN(c1cccnn1)C2 (centres unmarked) [19-4]
18,≥ 1000,CC1COc2cc(F)c(F)cc2N1C(=O)N1CC2(C1)CN(c1ccc(F)cn1)C2 (centres unmarked) [19-5]
19,≥ 1000,CC1COc2cc(Cl)c(F)cc2N1C(=O)N1CC2(C1)CN(c1cccnc1)C2 (centres unmarked) [19-6]
20,≥ 1000,"CC1COc2cc(Cl)ccc2N1C(=O)N1CC2(C1)CN(c1cccnc1)C2 (centres unmarked) [20-1, (7-chloro-3-methyl-2,3-dihydro-4H-benzo[b][1,4]oxazin-4-yl)(6-(pyridin-3-yl)-2,6-diazaspiro[3.3]heptan-2-yl)methanone]"
21,≥ 1000,Cc1cncc(N2CC3(CN(C(=O)N4c5ccc(F)cc5OCC4C)C3)C2)n1 (centres unmarked) [20-2]
22,≥ 1000,CC1COc2cc(Cl)ccc2N1C(=O)N1CC2(C1)CN(c1cc(C#N)ccn1)C2 (centres unmarked) [20-6]
23,≥ 1000,Cc1nc(N2CC3(CN(C(=O)N4c5ccc(Cl)cc5OCC4C)C3)C2)ncc1F (centres unmarked) [20-7]
24,≥ 1000,COc1ccnc(N2CC3(CN(C(=O)N4c5ccc(Cl)cc5OCC4C)C3)C2)c1 (centres unmarked) [20-8]
25,≥ 1000,COc1ccnc(N2CC3(CN(C(=O)N4c5ccc(Cl)cc5OCC4C)C3)C2)n1 (centres unmarked) [20-9]
26,≥ 1000,Cc1nccnc1N1CC2(CN(C(=O)N3c4ccc(Cl)cc4OCC3C)C2)C1 (centres unmarked) [20-10]
27,≥ 1000,Cc1ccnc(N2CC3(CN(C(=O)N4c5ccc(Cl)cc5OCC4C)C3)C2)c1 (centres unmarked) [20-11]
28,≥ 1000,Cc1ccnc(N2CC3(CN(C(=O)N4c5ccc(Cl)cc5OCC4C)C3)C2)n1 (centres unmarked) [20-12]
29,≥ 1000,Cc1cnc(N2CC3(CN(C(=O)N4c5ccc(Cl)cc5OCC4C)C3)C2)nc1 (centres unmarked) [20-13]
